Assay results published in patent publication US20060089395A1, “Nf-kb activation inhibitors” (priority 2002, published 2006).

Test system: NF-κ B
Assay: Inhibitory activity of NF-κ B activation, luciferase reporter assay in HepG2 under TNF-α stimulation
Assay type: cell-based, human
Settings: HepG2, TNF-α (40 ng/ml), 4 hours; for inhibition at 1 µg/mL / inhibition at 10 µg/mL: Homo sapiens; for Inhibitory Ratio of NF-κ B Activation(%) Drug Concentration 1 μg/mL / inhibition at 1 µg/mL: 1 μg/mL; for inhibition at 1 µg/mL: read-out: Inhibitory Ratio of NF-κ B Activation(%) Drug Concentration 1 μg/mL; for Inhibitory Ratio of NF-κ B Activation(%) Drug Concentration 10 μg/mL / inhibition at 10 µg/mL: 10 μg/mL; for inhibition at 10 µg/mL: read-out: Inhibitory Ratio of NF-κ B Activation(%) Drug Concentration 10 μg/mL
Outline: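 HepG2 cells transiently transfected with a luciferase reporter driven by five tandem NF-κB binding sites, then incubated 6–24 h. Stimulated with TNF-α (40 ng/ml) with or without test compound for 4 h. Intracellular luciferase read by chemiluminescence; inhibition expressed relative to activity without compound.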

Row | SMILES | Inhibitory Ratio of NF-κ B Activation(%) Drug Concentration 1 μg/mL [%] | Inhibitory Ratio of NF-κ B Activation(%) Drug Concentration 10 μg/mL [%] | inhibition at 1 µg/mL [%] | inhibition at 10 µg/mL [%]
1 | N#Cc1ccc(Cl)cc1NC(=O)c1cc(Cl)ccc1O [Compound No. 154] | 83.0 | 93.3 |  | 
2 | O=C(Nc1cc([N+](=O)[O-])ccc1Cl)c1cc(Cl)ccc1O [Compound No. 156] | 93.8 | 95.7 |  | 
3 | CC(C)CCOc1ccc(OCCC(C)C)c(NC(=O)c2cc(Cl)ccc2O)c1 [Compound No. 162] | 93.8 | 97.9 |  | 
4 | CCCCCCOc1ccc(S(C)(=O)=O)cc1NC(=O)c1cc(Cl)ccc1O [Compound No. 165] | 95.9 | 99.4 |  | 
5 | COc1ccc(-n2cccc2)c(NC(=O)c2cc(Cl)ccc2O)c1 [Compound No. 167] | 76.4 | 98.7 |  | 
6 | Cc1ccc(S(=O)(=O)c2ccc(Cl)c(NC(=O)c3cc(Cl)ccc3O)c2)cc1 [Compound No. 169] | 31.6 | 95.9 |  | 
7 | O=C(Nc1cc(N2CCOCC2)ccc1[N+](=O)[O-])c1cc(Cl)ccc1O [Compound No. 174] |  | 89.6 |  | 
8 | CCCCc1ccc([N+](=O)[O-])cc1NC(=O)c1cc(Cl)ccc1O [Compound No. 176] | 96.0 | 99.5 |  | 
9 | O=C(Nc1cc(F)ccc1F)c1cc(Cl)ccc1O [Compound No. 179] | 92.5 | 93.4 |  | 
10 | O=C(Nc1cc(F)cc(F)c1)c1cc(Cl)ccc1O [Compound No. 180] | 90.7 | 93.7 |  | 
11 | O=C(Nc1cc(Cl)cc(Cl)c1)c1cc2ccccc2cc1O [Compound No. 181] |  | 95.1 |  | 
12 | O=C(Nc1cc(Cl)cc(Cl)c1)c1c(O)ccc2ccccc12 [Compound No. 182] | 85.3 | 90.2 |  | 
13 | CC(C)(C)c1cc(NC(=O)c2cc(Cl)cnc2O)cc(C(C)(C)C)c1 [Compound No. 184] | 53.6 | 63.8 |  | 
14 | CC(C)(C)c1csc(NC(=O)c2cc(Br)ccc2O)n1 [Compound No. 185, 5-Bromo-N-{4-[(1,1-dimethyl)ethyl]thiazol-2-yl}-2-hydroxybenzamide] |  |  | 88.4 | 95.2
15 | CC(C)(C)c1nc(NC(=O)c2cc(Br)ccc2O)sc1Br [Compound No. 186, 5-Bromo-N-{5-bromo-4-[(1,1-dimethyl)ethyl]thiazol-2-yl}-2-hydroxybenzamide] |  |  | 96.5 | 98.7
16 | CC(C)(C)c1nc(NC(=O)c2cc(Cl)ccc2O)sc1C#N [Compound No. 188, 5-Chloro-N-{5-cyano-4-[(1,1-dimethyl)ethyl]thiazol-2-yl)-2-hydroxybenzamide] |  |  | 92.6 | 92.4

Row | SMILES | Inhibitory Ratio of NF-κ B Activation(%) Drug Concentration 1 μg/mL [%] | Inhibitory Ratio of NF-κ B Activation(%) Drug Concentration 10 μg/mL [%] | inhibition at 1 µg/mL [%] | inhibition at 10 µg/mL [%]
17 | CC(C)(C)c1nc(NC(=O)c2cc(Br)ccc2O)sc1C#N [Compound No. 189] | 20.0 | 93.8 |  | 
18 | Cc1cnc(NC(=O)c2cc(Br)ccc2O)s1 [Compound No. 190] |  | 69.7 |  | 
19 | Cc1nc(NC(=O)c2cc(Br)ccc2O)sc1C [Compound No. 191] |  | 67.2 |  | 
20 | Cc1sc(NC(=O)c2cc(Br)ccc2O)nc1-c1ccccc1 [Compound No. 192] | 83.6 | 94.4 |  | 
21 | Cc1nc(NC(=O)c2cc(Br)ccc2O)sc1-c1ccc(F)cc1 [Compound No. 193, 5-Bromo-N-[4-methyl-5-(4-fluorophenyl)thiazol-2-yl]-2-hydroxybenzamide] |  |  |  | 82
22 | Cc1nc(NC(=O)c2cc(Br)ccc2O)sc1-c1cccc(C(F)(F)F)c1 [Compound No. 194, 5-Bromo-N-{4-methyl-5-[3-(trifluoromethyl)phenyl]thiazol-2-yl}-2-hydroxybenzamide] |  |  |  | 71.7
23 | CCc1sc(NC(=O)c2cc(Br)ccc2O)nc1C(C)(C)C [Compound No. 195, 5-Bromo-N-{4-[(1,1-dimethyl)ethyl]-5-ethylthiazol-2-yl}-2-hydroxybenzamide] |  |  | 90.5 | 98.1
24 | CCc1nc(NC(=O)c2cc(Br)ccc2O)sc1-c1ccccc1 [Compound No. 196] | 28.8 | 87.6 |  | 
25 | CC(C)c1nc(NC(=O)c2cc(Br)ccc2O)sc1-c1ccccc1 [Compound No. 197, 5-Bromo-N-(4-isopropyl-5-phenylthiazol-2-yl)-2-hydroxybenzamide] |  |  | 70.1 | 96.1
26 | CCCCc1nc(NC(=O)c2cc(Br)ccc2O)sc1-c1ccccc1 [Compound No. 198, 5-Bromo-N-(4-butyl-5-phenylthiazol-2-yl)-2-hydroxybenzamide] |  |  | 46.1 | 88.7
27 | CC(=O)Oc1ccc(Cl)cc1C(=O)Nc1nc(C(C)(C)C)c(C(=O)C(C)(C)C)s1 [Compound No. 200] | 95.0 | 97.7 |  | 
28 | CCOC(=O)c1sc(NC(=O)c2cc(Br)ccc2O)nc1C(C)(C)C [Compound No. 202, 2-(5-Bromo-2-hydroxybenzoyl)amino-4-[(1,1-dimethyl)ethyl]thiazole-5-carboxylic acid ethyl ester] |  |  | 84.5 | 92.4
29 | CC(C)(C)c1nc(NC(=O)c2cc(Br)ccc2O)sc1N1CCCCC1 [Compound No. 204, 5-Bromo-N-{4-[(1,1-dimethyl)ethyl]-5-piperidinothiazol-2-yl)-2-hydroxybenzamide] |  |  | 93.6 | 97.8
30 | CC(C)(C)c1nc(NC(=O)c2cc(Br)ccc2O)sc1N1CCOCC1 [Compound No. 205, 5-Bromo-N-{4-[(1,1-dimethyl)ethyl]-5-morpholinothiazol-2-yl}-2-hydroxybenzamide] |  |  | 87.8 | 96.8
31 | CN1CCN(c2sc(NC(=O)c3cc(Br)ccc3O)nc2C(C)(C)C)CC1 [Compound No. 206, 5-Bromo-N-{4-[(1,1-dimethyl)ethyl]-5-(4-methylpiperazin-1-yl)thiazol-2-yl)-2-hydroxybenzamide] |  |  | 36.3 | 89.6

Second part, led by results:

Row | Inhibitory Ratio of NF-κ B Activation(%) Drug Concentration 1 μg/mL [%] | Inhibitory Ratio of NF-κ B Activation(%) Drug Concentration 10 μg/mL [%] | SMILES | inhibition at 1 µg/mL [%] | inhibition at 10 µg/mL [%]
32 | 88.3 | 97.1 | Cc1ccc(C)c(NC(=O)c2cc(Cl)ccc2O)c1 [Compound No. 153] |  | 
33 | 11.2 | 90.2 | CCN(CC)S(=O)(=O)c1ccc(OC)c(NC(=O)c2cc(Cl)ccc2O)c1 [Compound No. 155] |  | 
34 | 52.6 | 98.8 | O=C(Nc1ccccc1)c1ccc(Cl)c(NC(=O)c2cc(Cl)ccc2O)c1 [Compound No. 157] |  | 
35 | 52.4 | 96.8 | COc1ccc(OC)c(NC(=O)c2cc(Cl)ccc2O)c1 [Compound No. 158] |  | 
36 | 69.6 | 96.5 | COc1ccc(C)c(NC(=O)c2cc(Cl)ccc2O)c1 [Compound No. 160] |  | 
37 | 94.2 | 97.6 | CCCCOc1ccc(OCCCC)c(NC(=O)c2cc(Cl)ccc2O)c1 [Compound No. 161] |  | 
38 | 92.1 | 97.4 | COc1ccc(C(N)=O)cc1NC(=O)c1cc(Cl)ccc1O [Compound No. 163] |  | 
39 | 97.6 | 98.3 | CCC(C)(C)c1ccc(Oc2ccccc2)c(NC(=O)c2cc(Cl)ccc2O)c1 [Compound No. 164] |  | 
40 | 46.7 | 97.8 | Cc1ccc(S(=O)(=O)c2ccc(Cl)cc2NC(=O)c2cc(Cl)ccc2O)cc1 [Compound No. 168] |  | 
41 | 90.6 | 98.1 | COc1ccc(Oc2ccccc2)cc1NC(=O)c1cc(Cl)ccc1O [Compound No. 171] |  | 
42 | 93.7 | 96.4 | Cc1ccc(-c2ccccc2)cc1NC(=O)c1cc(Cl)ccc1O [Compound No. 172] |  | 
43 | 86.4 | 98.3 | COc1ccc(C(C)(C)c2ccccc2)cc1NC(=O)c1cc(Cl)ccc1O [Compound No. 173] |  | 
44 | 87.8 | 99.4 | CCC(C)(C)c1ccc(O)c(NC(=O)c2cc(Cl)ccc2O)c1 [Compound No. 177] |  | 
45 |  | 89.7 | COc1ccc(C)cc1NC(=O)c1cc(Cl)ccc1O [Compound No. 178] |  | 
46 |  | 86.8 | COc1ccc(OC)c(NC(=O)c2cc3ccccc3cc2O)c1 [Compound No. 183] |  | 
